Key:
human IBAT = target: T1, human IBAT (Homo sapiens, UniProt Q12908); experiment: In vitro assay of temporarily expressed human IBAT transporter using Cos 7 cells (Test Example 8); type: cell-based; conditions: Cos 7 cells temporarily expressing human IBAT; [3H] taurocholate 8 μM, 37° C., 60 minutes
T1 construct: expressed in transfected cells; host or cells: Cos 7
T1 sequence (Q12908 1-348): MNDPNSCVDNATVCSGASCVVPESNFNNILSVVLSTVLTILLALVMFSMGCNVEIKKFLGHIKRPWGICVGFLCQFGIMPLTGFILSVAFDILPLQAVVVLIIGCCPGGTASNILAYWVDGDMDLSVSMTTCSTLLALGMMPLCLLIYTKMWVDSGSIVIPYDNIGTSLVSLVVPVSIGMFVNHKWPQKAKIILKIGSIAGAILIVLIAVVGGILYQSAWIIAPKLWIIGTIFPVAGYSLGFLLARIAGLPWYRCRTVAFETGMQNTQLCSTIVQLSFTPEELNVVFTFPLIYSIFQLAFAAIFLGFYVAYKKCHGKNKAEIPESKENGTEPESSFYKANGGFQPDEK
Experimental: In Vitro Assay of Compounds Which Inhibit Temporarily Expressed Human IBAT Transporter or Rat IBAT Transporter Using Cos 7 Cells
In this test example, the in vitro assay of the compounds which inhibit temporarily expressed human IBAT transporter or rat IBAT transporter using Cos cells was carried out according to the method described in Am. J. Physiol., 274, G157-169.
That is, […] Cos 7 were inoculated on a 24-well cell plate. One day later, 0.3 μg per well of cDNA of a human IBAT or a rat IBAT was transfected by using FuGENE6 (manufactured by ROCHE PHARMACEUTICAL CO., LTD.). For the assay, the cells cultured for one day after the transfection were used and the following procedure was followed. The cells were washed once with an assay buffer, Hank's buffer solution containing 25 mM glucose and with 10 mM HEPES (pH 7.4), and then the assay buffer was replaced by an assay buffer to which the test compound was added. After adding [^3H] taurocholate to a final concentration of 8 μM, the cells were incubated at 37° C. for 60 minutes. [^3H] taurocholate was allowed to be incorporated in Cos 7 cells through human IBAT or rat IBAT. The reaction was stopped by washing twice with a buffer prepared by adding 1 mM taurocholate to the assay buffer and lyzing the cells with 0.2M NaOH. Measurement of radioactivity was carried out by introducing the cell lyzate in 4 ml of liquid scintillation cocktail, stirring the mixture well, and then measuring the radioactivity by a scintillation counter.

[1] = system: Cholic acid-loaded rat model; experiment: Bile acid-decreasing effect in portal vein of rats loaded with cholic acid (Test Example 2); type: in vivo; conditions: portal vein blood after 2 hours
Experimental: Bile Acid-Decreasing Effect in Portal Vein of Rats Loaded With Cholic Acid
In this test example, the test for confirming the bile acid-decreasing effect in portal vein of cholic acid-loaded rats was carried out according to the method described in Pharmacology and Therapeutics [Jpn Pharmacol. Ther., Vol. 24 Supplement, 1996, 103 (S-577)-110 (S-584)].
That is, 7 to 9 weeks old SD (IGS) rats were starved on the day before the test and thereafter. […] After 2 hours from the administration, a sample of blood was taken from a portal vein and total serum bile acid level was measured to study the effect of the test compound (n=6). Further, as a control group, a group (n=6) loaded with cholic acid (200 mg/kg) only was prepared and the same test procedure was followed. A commercially available kit (trade name: SOTANJUSAN-TEST WAKO-(SOTANJUSAN=total bile acid), manufactured by WAKO PURE CHEMICAL […], LTD.) was used for the measurement of bile acid. Assuming the value of the control group, which is a group in which no test compound was used, as 100%, the rate of decrease (percentage (%) of decrease) of the bile acid level when a fixed amount of the test compound was used was determined.

Caco 2 cells = experiment: Toxicity with respect to alimentary canal: cytotoxicity to Caco 2, LDH activity (Test Example 12); type: cell-based, human; conditions: LDH activity after 2 hours, relative to cytolytic agent = 100%
Experimental: Toxicity With Respect to Alimentary Canal
To evaluate the toxicity of the compounds of the present invention to the alimentary canal, the cytotoxicity to Caco 2, which is a human originated small intestine epithelial cell line, was tested by referring to the method of Bestwick C S et al. [Biochimica et Biophysica Acta 1474: 47-55, 1999].
That is, Caco 2 cells (purchased from ATCC) were inoculated on a 96-well plate such that there were 10,000 cells/well [MEM-E medium, 10% FBS (Fetal Bovine Serum), 1% NEAA (Non Essential Amino Acid) solution, (both manufactured by GIBCO PHARMACEUTICAL COMPANY)]. After culturing for 48 hours, the test compounds were diluted with the culture medium and added to the respective wells. After 2 hours, 50 μl of the culture broth was collected and the LDH activity in the collected culture broth was measured by using an LDH activity measuring kit (CytoTox 96 Non-Radioactive Cytotoxicity Assay, manufactured by PROMEGA CORPORATION). Relative activities were calculated assuming the LDH activity as 100% when the Caco 2 cells were treated with the cytolytic agent and the obtained relative activities were taken as cytotoxicities to Caco 2 cell.

[2] = 0.1 mg/kg oral with cholic acid 200 mg/kg, Tween 20 0.05%
[3] = 0.1 mg/kg oral with cholic acid 200 mg/kg, HCO-60 0.1%
[4] = 0.3 mg/kg oral with cholic acid 200 mg/kg, HCO-60 0.1%

## CCCCC1(CCCC)CS(=O)(=O)c2ccc(N(C)C)cc2C(c2cccc(NC(=S)NCCC[N+](C)(C)Cc3ccccc3)c2)N1.[Br-] (stereo not drawn) [Example 425]
Human IBAT
  IC50: 0.17 µM
[1]; [2]
  Rate of decrease (%) of bile acid: 21%

## CCCCC1(CCCC)CS(=O)(=O)c2ccc(N(C)C)cc2C(c2cccc(NC(=S)NCCCC[N+](C)(C)Cc3ccccc3)c2)N1.[Br-] (stereo not drawn) [Example 801]
[1]; [3]
  Rate of decrease (%) of bile acid: 33%

## CCCCC1(CCCC)CS(=O)(=O)c2ccc(N(C)C)cc2C(c2cccc(NC(=S)NCCCCC[N+](C)(C)Cc3ccccc3)c2)N1.[Br-] (stereo not drawn) [Example 1178]
Human IBAT
  IC50: 0.093 µM
[1]; [3]
  Rate of decrease (%) of bile acid: 18%

## CCCCC1(CCCC)CS(=O)(=O)c2ccc(N(C)C)cc2C(c2cccc(NC(=S)Nc3ccc(C[N+](C)(C)CCCC)cc3)c2)N1.[Br-] (stereo not drawn) [Example 3409]
Human IBAT
  IC50: 0.045 µM
[1]; [3]
  Rate of decrease (%) of bile acid: 28%
Caco 2 cells; 3 μM
  Toxicity (%) to Caco 2: <1%
Caco 2 cells; 10 μM
  Toxicity (%) to Caco 2: <1%
Caco 2 cells; 30 μM
  Toxicity (%) to Caco 2: <1%

## CCCCC1(CCCC)CS(=O)(=O)c2ccc(N(C)C)cc2C(c2cccc(NC(=S)Nc3ccc(C[N+]4(Cc5ccccc5)CCC(CO)CC4)cc3)c2)N1.[Br-] (stereo not drawn) [Example 3607]
Human IBAT
  IC50: 0.041 µM
[1]; [3]
  Rate of decrease (%) of bile acid: 36%
Caco 2 cells; 3 μM
  Toxicity (%) to Caco 2: <1%
Caco 2 cells; 10 μM
  Toxicity (%) to Caco 2: <1%
Caco 2 cells; 30 μM
  Toxicity (%) to Caco 2: <1%

## CCCCC1(CCCC)CS(=O)(=O)c2ccc(N(C)C)cc2C(c2cccc(NC(=S)Nc3ccc(C[N+]4(Cc5ccccc5)CCC(CCO)CC4)cc3)c2)N1.[Br-] (stereo not drawn) [Example 3608]
Human IBAT
  IC50: 0.059 µM
[1]; [3]
  Rate of decrease (%) of bile acid: 43%
Caco 2 cells; 3 μM
  Toxicity (%) to Caco 2: <1%
Caco 2 cells; 10 μM
  Toxicity (%) to Caco 2: <1%
Caco 2 cells; 30 μM
  Toxicity (%) to Caco 2: <1%

## CCCCC1(CCCC)CS(=O)(=O)c2ccc(N(C)C)cc2C(c2cccc(NC(=S)Nc3ccc(C[n+]4ccc(CC)cc4)cc3)c2)N1.[Br-] (stereo not drawn) [Example 3710]
Human IBAT
  IC50: 0.052 µM
[1]; [3]
  Rate of decrease (%) of bile acid: 20%
Caco 2 cells; 3 μM
  Toxicity (%) to Caco 2: <1%
Caco 2 cells; 10 μM
  Toxicity (%) to Caco 2: <1%
Caco 2 cells; 30 μM
  Toxicity (%) to Caco 2: <1%

## CCCCc1ccc[n+](Cc2ccc(NC(=S)Nc3cccc(C4NC(CCCC)(CCCC)CS(=O)(=O)c5ccc(N(C)C)cc54)c3)cc2)c1.[Br-] (stereo not drawn) [Example 3723]
Human IBAT
  IC50: 0.025 µM
Caco 2 cells; 3 μM
  Toxicity (%) to Caco 2: <1%
Caco 2 cells; 10 μM
  Toxicity (%) to Caco 2: <1%
Caco 2 cells; 30 μM
  Toxicity (%) to Caco 2: <1%

## CCCCC1(CCCC)CS(=O)(=O)c2ccc(N(C)C)cc2C(c2cccc(NC(=S)Nc3ccc(C[n+]4ccc(C#N)cc4)cc3)c2)N1.[Br-] (stereo not drawn) [Example 3753]
[1]; [4]
  Rate of decrease (%) of bile acid: 8.5%

## CCCCC1(CCCC)CS(=O)(=O)c2ccc(N(C)C)cc2C(c2cccc(NC(=S)Nc3ccc(C[n+]4cccc(CC#N)c4)cc3)c2)N1.[Br-] (stereo not drawn) [Example 3759]
[1]; [4]
  Rate of decrease (%) of bile acid: 36%
Caco 2 cells; 3 μM
  Toxicity (%) to Caco 2: <1%
Caco 2 cells; 10 μM
  Toxicity (%) to Caco 2: <1%
Caco 2 cells; 30 μM
  Toxicity (%) to Caco 2: <1%

## CCCCC1(CCCC)CS(=O)(=O)c2ccc(N(C)C)cc2C(c2cccc(NC(=S)Nc3ccc(C[n+]4ccc5ccccc5c4)cc3)c2)N1.[Br-] (stereo not drawn) [Example 3783]
Human IBAT
  IC50: 0.048 µM
[1]; [3]
  Rate of decrease (%) of bile acid: 16%
Caco 2 cells; 3 μM
  Toxicity (%) to Caco 2: <1%
Caco 2 cells; 10 μM
  Toxicity (%) to Caco 2: <1%
Caco 2 cells; 30 μM
  Toxicity (%) to Caco 2: <1%

## CCCCC1(CCCC)CS(=O)(=O)c2ccc(N(C)C)cc2C(c2cccc(NC(=S)CCCCC[N+](C)(C)Cc3ccccc3)c2)N1 (stereo not drawn) [Example 3835]
Human IBAT
  IC50: 0.043 µM
[1]; [2]
  Rate of decrease (%) of bile acid: 23%
Caco 2 cells; 3 μM
  Toxicity (%) to Caco 2: <1%
Caco 2 cells; 10 μM
  Toxicity (%) to Caco 2: <1%
Caco 2 cells; 30 μM
  Toxicity (%) to Caco 2: <1%

## CCCCC1(CCCC)CS(=O)(=O)c2ccc(N(C)C)cc2C(c2cccc(NC(=S)Nc3cccc(C[N+](C)(C)Cc4ccccc4)c3)c2)N1.[Br-] (stereo not drawn) [Example 4257]
[1]; [3]
  Rate of decrease (%) of bile acid: 30%

## CCCCC1(CCCC)CS(=O)(=O)c2ccc(N(C)C)cc2C(c2cccc(NC(=S)Nc3cccc(C[N+]4(Cc5ccccc5)CCC(CO)CC4)c3)c2)N1 (stereo not drawn) [Example 4424]
Human IBAT
  IC50: 0.091 µM
[1]; [3]
  Rate of decrease (%) of bile acid: 17%

## CCCCC1(CCCC)CS(=O)(=O)c2ccc(N(C)C)cc2C(c2cccc(NC(=S)Nc3cccc(C[N+]4(Cc5ccccc5)CCC(CCO)CC4)c3)c2)N1 (stereo not drawn) [Example 4425]
Human IBAT
  IC50: 0.089 µM
[1]; [3]
  Rate of decrease (%) of bile acid: 22%

## CCCCC1(CCCC)CS(=O)(=O)c2ccc(N(C)C)cc2C(c2cccc(NC(=S)Nc3cccc(C[N+]45CCC(CC4)CC5)c3)c2)N1 (stereo not drawn) [Example 4512]
Human IBAT
  IC50: 0.063 µM
[1]; [3]
  Rate of decrease (%) of bile acid: 37%

## CCCCC1(CCCC)CS(=O)(=O)c2ccc(N(C)C)cc2C(c2cccc(NC(=S)Nc3ccccc3C[N+]34CCC(CC3)CC4)c2)N1.[Br-] (stereo not drawn) [Example 4905]
[1]; [3]
  Rate of decrease (%) of bile acid: 28%

## CCCCC1(CCCC)CS(=O)(=O)c2ccc(N(C)C)cc2C(c2cccc(NC(=S)Nc3ccc(CC[N+](C)(C)Cc4ccccc4)cc3)c2)N1 (stereo not drawn) [Example 5043]
Human IBAT
  IC50: 0.062 µM
[1]; [4]
  Rate of decrease (%) of bile acid: 39%
Caco 2 cells; 3 μM
  Toxicity (%) to Caco 2: <1%
Caco 2 cells; 10 μM
  Toxicity (%) to Caco 2: <1%
Caco 2 cells; 30 μM
  Toxicity (%) to Caco 2: <1%

## CCCCC1(CCCC)CS(=O)(=O)c2ccc(N(C)C)cc2C(c2cccc(NC(=S)Nc3ccc(CC[N+]45CCC(CC4)CC5)cc3)c2)N1 (stereo not drawn) [Example 5298]
Human IBAT
  IC50: 0.076 µM
[1]; [4]
  Rate of decrease (%) of bile acid: 40%
Caco 2 cells; 3 μM
  Toxicity (%) to Caco 2: <1%
Caco 2 cells; 10 μM
  Toxicity (%) to Caco 2: <1%
Caco 2 cells; 30 μM
  Toxicity (%) to Caco 2: <1%

## CCCCC1(CCCC)CS(=O)(=O)c2ccc(N(C)C)cc2C(c2ccc(NC(=S)Nc3ccc(C[N+](C)(C)Cc4ccccc4)cc3)cc2)N1.[Br-] (stereo not drawn) [Example 5405, Benzyl-(4-{3-[4-(3,3-dibutyl-7-dimethylamino-1,1-dioxo-2,3,4,5-tetrahydro-1,4-benzothiazepin-5-yl)phenyl]thioureido}-benzyl)dimethylammonium bromide]
[1]; [3]
  Rate of decrease (%) of bile acid: 16%

From patent US7803792B2, “Quaternary ammonium compounds” (Asahi Kasei Pharma Corporation, priority 2002, dated 2010)
